# Values quoted from earlier work, collected in PMC6631257.
# Tested on: CYP2D6
structure (smiles),measurement,value
COc1ccc([C@@H]2Sc3ccccc3N(CCN(C)C)C(=O)[C@@H]2OC(C)=O)cc1 [diltiazem],CYP2D6 inhibitor strength,weak inhibitor
CNCCC(Oc1ccc(C(F)(F)F)cc1)c1ccccc1 (stereo not drawn) [fluoxetine],CYP2D6 inhibitor strength,strong
Fc1ccc([C@@H]2CCNC[C@H]2COc2ccc3c(c2)OCO3)cc1 [paroxetine],CYP2D6 inhibitor strength,strong
